PubChem BioAssay (NCI)
Where “and” joins values, the source holds several entries; their conditions need not be identical. Equal values may be shown once.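 Tested at 5 concentrations; 48 h exposure; 96-well plates; endpoints linearly interpolated, else capped at highest concentration. GI50 marks 50% less growth. TGI marks complete inhibition of growth.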

Key:
Assay in all cases: DTP human tumour cell line panel, 48 h
[1] = system: NCI-H522 lung
[2] = system: NCI-H226 lung
[3] = system: UO-31 renal
[4] = system: SW-620 colon
[5] = system: SF-295 CNS
[6] = system: HCC-2998 colon
[7] = system: A549 NSCLC
[8] = system: SNB-19 CNS
[9] = system: HCT-15 colon
[10] = system: NCI/ADR-RES ovarian

## CSC(C1c2ccccc2N(c2ccc(C)cc2)C2=NC(=O)N(C)C(=O)C21Cl)S(=O)(=O)c1ccc(C)cc1 (stereo not given)
[1]
  TGI: 31.9 µM
[2]
  TGI: 48.7 µM
[3]
  TGI: 69.9 µM
[4]
  TGI: 85.9 µM
[5]
  TGI: 62.4 µM
[6]
  TGI: 36.6 µM
[7]
  TGI: > 100 µM
[8]
  TGI: 85.2 µM

## O=C1CCC2(c3ccc(F)cc3)Nc3cc(Cl)ccc3N12 (stereo not given)
[9]
  TGI: > 100 µM
[1]
  TGI: > 100 µM
[2]
  TGI: > 100 µM
[3]
  TGI: > 100 µM
[4]
  TGI: > 100 µM
[5]
  TGI: > 100 µM
[7]
  TGI: > 100 µM
[8]
  TGI: > 100 µM

## CC(C)(CC(=O)Nc1ccccc1)C(=O)O
[9]
  TGI: > 100 µM
[2]
  TGI: > 100 µM
[3]
  TGI: > 100 µM
[4]
  TGI: > 100 µM
[5]
  TGI: > 100 µM
[10]
  TGI: > 100 µM
[7]
  TGI: > 100 µM
[8]
  TGI: > 100 µM

## OCC(O)CC[CH2][Sn]([Br])([c]1ccccc1)[c]1ccccc1 (stereo not given)
[9]
  GI50: > 100 µM
  TGI: > 100 µM
[1]
  GI50: 13 µM
  TGI: 92.1 µM
[2]
  GI50: > 100 µM
  TGI: > 100 µM
[3]
  GI50: > 100 µM
  TGI: > 100 µM
[4]
  GI50: > 100 µM
  TGI: > 100 µM
[5]
  GI50: > 100 µM
  TGI: > 100 µM
[6]
  GI50: > 100 µM
  TGI: > 100 µM
[7]
  GI50: > 100 µM
  TGI: > 100 µM
[8]
  GI50: > 100 µM
  TGI: > 100 µM

## COc1cc(C2=C(c3ccccc3)COC2=O)cc(OC)c1OC
[9]
  GI50: 2.96 µM
  TGI: > 100 µM
[1]
  GI50: 2.48 µM
  TGI: > 57.4 µM
[2]
  GI50: 59.2 µM
  TGI: > 100 µM
[3]
  GI50: 7.77 µM
  TGI: > 49.9 µM
[4]
  GI50: 1.68 µM
  TGI: > 100 µM
[5]
  GI50: 0.324 µM
  TGI: 2.9 µM
[6]
  GI50: 1.27 µM
  TGI: 5.97 µM
[7]
  GI50: 6.78 µM
  TGI: > 58.7 µM
[8]
  GI50: 4.42 µM
  TGI: > 100 µM

## CCOC(=O)[C]1([Bi]([CH3])[CH3])N=NC(C(=O)OC)=C1C(=O)OC (stereo not given)
[9]
  GI50: 20.7 µM
  TGI: 49.6 µM
[2]
  GI50: 20.6 µM
  TGI: 41.4 µM
[3]
  GI50: 20.3 µM
  TGI: 34.5 µM
[4]
  GI50: 16.6 µM
  TGI: 32.8 µM
[5]
  GI50: > 100 µM
  TGI: > 100 µM
[6]
  GI50: 16.4 µM
  TGI: 30.7 µM
[7]
  GI50: > 10 µM
  TGI: > 10 µM
[8]
  GI50: 26 µM
  TGI: 66 µM

## COC(=O)C1Cc2c(n(Cc3ccccc3)c3ccccc23)C(CCC(=O)O)N1C(C)C (stereo not given)
[9]
  TGI: > 100 µM
[1]
  TGI: > 100 µM
[2]
  TGI: > 100 µM
[3]
  TGI: > 100 µM
[4]
  TGI: > 100 µM
[5]
  TGI: > 100 µM
[6]
  TGI: > 100 µM
[7]
  TGI: > 100 µM
[8]
  TGI: > 100 µM

## COC1/C=C\C=C(/C)C(=O)NC2=CC(=O)C(=O)C(=C2O)CC(C)CC(OC)C(O)C(C)/C=C(\C)C1OC(N)=O (stereo not given)
[9]
  TGI: > 100 µM
[1]
  TGI: 18.3 µM
[2]
  TGI: > 100 µM
[3]
  TGI: 39.8 µM
[4]
  TGI: 18.3 µM
[5]
  TGI: > 100 µM
[10]
  TGI: > 100 µM
[7]
  TGI: > 100 µM
[8]
  TGI: > 100 µM

## O=C(/C=C/c1c(O)ccc2ccccc12)c1cccc(O)c1
[9]
  TGI: > 100 µM
[1]
  TGI: > 100 µM
[2]
  TGI: > 100 µM
[3]
  TGI: > 100 µM
[4]
  TGI: > 100 µM
[5]
  TGI: > 100 µM
[6]
  TGI: > 100 µM
[7]
  TGI: > 100 µM
[8]
  TGI: > 100 µM

## O=C(O)CNS(=O)(=O)c1ccc(NCc2ccccc2)cc1
[9]
  TGI: > 100 µM
[1]
  TGI: > 100 µM
[2]
  TGI: > 100 µM
[3]
  TGI: > 100 µM
[4]
  TGI: > 100 µM
[6]
  TGI: > 100 µM
[7]
  TGI: > 100 µM
[8]
  TGI: > 100 µM

## COc1ccc(-c2cc(=O)c3ccc(O)cc3o2)cc1OC
[9]
  TGI: > 100 µM
[1]
  TGI: > 100 µM
[2]
  TGI: > 100 µM
[4]
  TGI: > 100 µM
[5]
  TGI: > 100 µM
[6]
  TGI: > 100 µM
[10]
  TGI: > 100 µM
[7]
  TGI: > 100 µM
[8]
  TGI: > 100 µM

## COc1ccc(/C=C/c2nccc3ccccc23)cc1OC
[9]
  TGI: > 10 µM
[1]
  TGI: > 10 µM
[2]
  TGI: > 10 µM
[4]
  TGI: > 10 µM
[5]
  TGI: > 10 µM
[6]
  TGI: > 10 µM
[10]
  TGI: > 10 µM
[7]
  TGI: > 10 µM
[8]
  TGI: > 10 µM

## CCOC(=O)C1=C(OC(OCC)C(CC)[Se]c2ccccc2)CCCC1 (stereo not given)
[9]
  TGI: 41.2 µM
[1]
  TGI: 28.4 µM
[2]
  TGI: 61.3 µM
[3]
  TGI: > 100 µM
[5]
  TGI: 55.6 µM
[6]
  TGI: > 100 µM
[7]
  TGI: > 100 µM
[8]
  TGI: > 100 µM

## N#Cc1cc([N+](=O)[O-])ccc1NC(=O)C(=O)Nc1n[nH]c(N)n1
[9]
  TGI: > 100 µM
[1]
  TGI: > 100 µM
[2]
  TGI: > 100 µM
[3]
  TGI: > 100 µM
[4]
  TGI: > 100 µM
[6]
  TGI: > 100 µM
[7]
  TGI: > 100 µM
[8]
  TGI: > 100 µM

## O=C1CCCCN1CCCCC#Cc1ccccc1C#Cc1ccc([N+](=O)[O-])cc1
[9]
  GI50: 1.5 µM
  TGI: 9.89 µM
[1]
  GI50: 12.3 µM
  TGI: 59.5 µM
[2]
  GI50: 5.03 µM
  TGI: 22.1 µM
[3]
  GI50: 19.5 µM
  TGI: 84.6 µM
[4]
  GI50: 5.18 µM
  TGI: 18.3 µM
[10]
  GI50: 3.35 µM
  TGI: 12.3 µM
[7]
  GI50: 3.03 µM
  TGI: 13 µM
[8]
  GI50: 6.57 µM
  TGI: 19.4 µM

## COC12C=C(C)C(CC1)CC2C(=O)O (stereo not given)
[9]
  TGI: > 100 µM
[1]
  TGI: > 100 µM
[2]
  TGI: > 100 µM
[3]
  TGI: > 100 µM
[4]
  TGI: > 100 µM
[5]
  TGI: > 100 µM
[6]
  TGI: > 100 µM
[7]
  TGI: > 100 µM
[8]
  TGI: > 100 µM

## CC(=O)CNC(=O)OC(C)(C)C
[1]
  TGI: > 100 µM
[2]
  TGI: > 100 µM
[3]
  TGI: > 100 µM
[4]
  TGI: > 100 µM
[5]
  TGI: > 100 µM
[7]
  TGI: > 100 µM
[8]
  TGI: > 100 µM

## CC1=CC(=Nc2ccc(N(CCCl)CCCl)cc2)C=C(C)C1=O
[9]
  GI50: 1.63 µM
  TGI: 11 µM
[2]
  GI50: 1.2 µM
  TGI: 4.83 µM
[4]
  GI50: 0.816 µM
  TGI: 4.6 µM
[5]
  GI50: 0.626 µM
  TGI: 22.6 µM
[6]
  GI50: 2.29 µM
  TGI: 9.83 µM
[10]
  GI50: 1.09 µM
  TGI: 10.1 µM
[7]
  GI50: 1.61 µM
  TGI: 24 µM
[8]
  GI50: 2.81 µM
  TGI: > 65.8 µM

## O=C1C2c3[nH]c4ccccc4c3C3CCCCCCC3C2C(=O)N1c1ccccc1 (stereo not given)
[9]
  TGI: > 100 µM
[4]
  TGI: 29.8 µM
[5]
  TGI: 12.8 µM
[6]
  TGI: > 100 µM
[7]
  TGI: 24.9 µM

## C/C(CC(=O)Nc1cc(Cl)c(Cl)cc1Cl)=N\NC(N)=O
[1]
  TGI: > 100 µM
[2]
  TGI: > 100 µM
[3]
  TGI: > 100 µM
[4]
  TGI: > 100 µM
[5]
  TGI: > 100 µM
[6]
  TGI: > 100 µM
[7]
  TGI: > 100 µM

## CCc1ccc(/C=C\c2cc(OC)c(OC)c(OC)c2)cc1
[9]
  GI50: 0.0327 µM
[1]
  TGI: 0.0503 µM and 0.0384 µM
[2]
  TGI: 0.0792 µM
[3]
  GI50: 0.0512 µM
  TGI: 81.3 µM
[5]
  TGI: 0.0171 µM
[6]
  GI50: 0.0577 µM
  TGI: 0.342 µM and 0.438 µM
[7]
  TGI: 53.1 µM
[8]
  GI50: 0.0176 µM
